Reference: patent US20170021014A1, “VACCINE ADJUVANTS FOR CYTOMEGALOVIRUS PREVENTION AND TREATMENT” (THE JOHNS HOPKINS UNIVERSITY, priority 2015, published 2017)

Tests used:
HCMV TB40 = experiment: Plaque reduction assay in HFFs, HCMV TB40; type: cell-based, human cytomegalovirus; settings: MDP 10 μg/mL pretreatment 72 h, 100 PFU/well, 10 days
Description: A plaque reduction assay was performed in HFFs to determine the effects of MDP treatment either before or after infection on virus replication. HFFs were seeded into 12-well plates (2×10^5 cells/well) and infected with Towne HCMV at approximately 100 plaques/well. After 90 minutes, media were aspirated, and DMEM containing 0.5% carboxymethyl-cellulose (CMC), 4% fetal bovine serum (FBS), and MDP at final concentration of 10 μg/mL were added into duplicate wells. In pretreatment experiments HFFs were first treated with MDP (10 μg/mL) for 72 h after which infection with the Towne or TB40 strains was carried out at approximately 100 plaques/well. After 90 minute adsorption, media were aspirated, and DMEM containing 0.5% CMC and 4% FBS were added into duplicate wells. After incubation at 37° C. for 8 days (Towne) or 10 days (TB40) the overlay was removed and plaques were counted after crystal violet staining.

HFFs = experiment: MTT cell viability assay; type: cell-based, Human
Description: MTT assay (Sigma-Aldrich) was performed to rule out any cytotoxicity induced by MDP treatment. Cells (HFFs and transduced GIPZ/shIFNβ-HFFs as described below) were pretreated with MDP for 96- and 72 h, respectively and 20 μl/well of MTT [3-(4, 5-Dimethyl-2-thiazolyl)-2, 5-diphenyl-2H-tetrazolim bromide, 5 mg/mL in phosphate buffered saline (PBS)] was added to each well. After shaking plates at 150 rpm for 5 minutes the plates were incubated at 37° C. for 3 hours. Conversion of yellow solution to dark blue formazan by mitochondrial dehydrogenases of living cells was quantified by measuring absorbance at 560 nm.

NOD2 mRNA = experiment: qRT-PCR of NOD2 mRNA in HFFs; type: cell-based, Human; settings: for NOD2 induction by MDP: HCMV-infected, 36 hpi
Description: (§1) Total RNA was isolated from cells using RNAeasy Mini kit (Qiagen, Georgetown, Md.) according to manufacturer's instructions. RevertAid first strand cDNA synthesis kit (Fermentas life sciences, Cromwell Park, Md.) was used to synthesize first strand cDNA from total RNA using oligo-dT primers. Negative reverse-transcriptase (−RT) reactions were included to ensure the specificity of qRT-PCR reactions. Synthesis of first strand cDNA from mRNA template was carried out at 42° C. for 1 h. Quantitative RT-PCR was performed using specific primers and SYBR green (Fermentas life science) with two-step cycling protocol (95° C. for 15 s, 60° C. for 1 min). All reactions were performed in triplicates and GAPDH was used as internal control. The expression level of the tested genes was normalized to the expression of GAPDH.

IL8 mRNA = experiment: qRT-PCR of IL8 mRNA in HFFs; type: cell-based, Human
Description: as §1

[1] = test system: pp28-luciferase Towne strain; experiment: pp28-luciferase HCMV replication assay (first and second cycle); type: cell-based, human cytomegalovirus; settings: for luciferase activity reduction, second cycle: MOI 1, second cycle 72 h
Description: (§2) Human Foreskin Fibroblasts (HFFs) passage 12-16 (ATCC, CRL-2088™) were grown in Dulbecco's Modified Eagle Medium (DMEM) containing 10% fetal bovine serum (FBS) (Gibco, Carlsbad, Calif.) in a 5% CO2 incubator at 37° C. The generation of NOD2-KD HFFs (HFF-shNOD2) and control cells (HFF-GIPZ) was reported. One day prior to infection or treatment, 8×10^4 cells were seeded into each well of 12-well tissue culture plates. Multiplicities of infection were specified for each experiment. The Towne HCMV strain was obtained from ATCC (VR-977). The pp28-luciferase Towne strain which expresses luciferase under the control of the pp28 late promoter has been described. Luciferase activity was measured at 72 or 96 hours post infection (hpi) using the Glomax-Multi+ Detection System (Promega, Madison, Wis.). In second cycle replication assays cell free supernatants from HFFs infected with pp28-luciferase Towne were collected 4 days post completion of first replication cycle (5-10% of total volume/well), and used for infection of fresh HFFs seeded into 12-well plates. Cell lysates were collected after 72 h for luciferase activity. Supernatants from the first cycle were also used to measure virus titer in 12-well plates and plaques were counted at day 8 post infection. A purified preparation of the pp28-luciferase Towne strain was prepared by ultracentrifugation using sucrose gradient. The HCMV TB40 strain was obtained from ATCC (VR-1578). Clinical isolates of HCMV were obtained from the microbiology laboratory at Johns Hopkins Hospital with no identifiers that could be linked to a patient. The Johns Hopkins School of Medicine Office of Human Subject Research Institutional Review Board (IRB-X) determined that the research qualified for an exemption.

[2] = test system: pp28-luciferase Towne strain; experiment: Virus titration of first cycle supernatants by plaque assay; type: cell-based, human cytomegalovirus; settings: MDP-pretreated cells, plaques at 8 days
Description: as §2, with “Cell lysates were collected after 72 h for luciferase activity.” left out, “A purified preparation of the pp28-luciferase Towne strain was prepared by ultracentrifugation using sucrose gradient. The HCMV TB40 strain was obtained from ATCC (VR-1578). Clinical isolates of HCMV were obtained from the microbiology laboratory at Johns Hopkins Hospital with no identifiers that could be linked to a patient.” left out

secreted IFN-β = experiment: IFN-β specific ELISA of supernatants; type: cell-based, Human; settings: MDP pretreatment 18 or 72 h, MOI 1, 24 h
Description: The effect of MDP pretreatment on levels of secreted IFN-β in supernatants from non-infected or HCMV-infected HFFs was measured by IFN-β specific ELISA kit (PBL Assay Science, Piscataway, N.J.).

clinical isolate of HCMV = experiment: Immunofluorescence staining for HCMV IE1/2; type: cell-based, human cytomegalovirus; settings: GIPZ HFFs, MDP pretreatment 72 h, infected 24 h, MOI 1
Description: GIPZ control and shIFN-β HFFs were seeded into 96-well plate (1×10^4 cells/well) and pretreated with MDP (10 μg/mL) for 72 h. Cells were then infected with a clinical isolate of HCMV at MOI 1. Twenty-four hours after infection, cells were fixed with methanol/acetone (1:1) at −20° C. for 10 min. Cells were then blocked with 7.5% BSA for 30 min. and incubated for 1 h with anti-human CMV IE1&2 antibody (MAB810) (1:500 in 0.5% BSA). After 3 washes with PBS, cells were incubated with FITC-anti mouse antibody (F8521, Sigma, 1:500, in 0.5% BSA) for 1 h. Then cells were washed 3 times with PBS and counterstained with propidium iodide (Invitrogen) for nuclear staining. Images were taken using Nikon Eclipse TS100 microscope.

CC(=O)N[C@H]1C(O)O[C@H](CO)[C@@H](O)[C@@H]1O[C@H](C)C(=O)N[C@@H](C)C(=O)N[C@H](CCC(=O)O)C(N)=O (mixture of isomers) [MDP, Muramyl dipeptide]
plaque number reduction (HCMV TB40): ~70% | cellular toxicity (MTT) (HFFs; HFFs treated 96 h): no toxicity at any of the concentrations used | toxicity / cell growth (MTT) (HFFs; control GIPZ or shIFN-β KD HFFs, MDP 10 μg/mL 72 h): No toxicity or difference in cell growth | NOD2 induction by MDP (NOD2 mRNA; MOI 0.1, MDP after infection): 6.5 fold | NOD2 induction by MDP (NOD2 mRNA; MOI 1, MDP after infection): 2.5 fold | NOD2 mRNA induction (NOD2 mRNA; MDP pretreatment 72 h then HCMV Towne MOI 1 for 24 h (infection only 50-fold)): 265 fold | induction of NOD2 mRNA (NOD2 mRNA; non-infected HFFs, MDP 10 μg/mL, 36 h): 4 fold | induction of NOD2 mRNA (NOD2 mRNA; non-infected cells, 72 h MDP treatment then 24 h medium): 3 fold | increase in IL8 mRNA (IL8 mRNA; HCMV-infected, MDP treatment, 4 hpi): 2 fold | further increase of IL8 mRNA (IL8 mRNA; MDP after infection compared to MDP or HCMV alone, irrespective of MOI): 6-7 fold | IL8 expression induction (IL8 mRNA; MDP alone, non-infected, 36 h): 3 fold | IL8 expression (IL8 mRNA; MDP pretreatment 72 h, non-infected or HCMV-infected): modestly induced | pp28 activity reduction, first cycle ([1]; MDP pretreatment 10 μg/mL 72 h, MOI 0.1, 96 hpi): 80% | pp28 expression (luciferase activity), first cycle ([1]; MDP pretreatment 18 or 72 h, MOI 1, 96 hpi): modest reduction | luciferase activity reduction, second cycle ([1]; MDP pretreatment 18 h): approximately 45% | luciferase activity reduction, second cycle ([1]; MDP pretreatment 72 h): ~75% | reduction in virus titer [2]: 6 fold | secreted IFN-β (secreted IFN-β): increased with the duration of MDP-pretreatment | nuclear IE1/2 expression (clinical isolate of HCMV): reduced IE1/2 expression
